This test addresses USP14 (Homo sapiens (Human), UniProt P54578). As to the kind of experiment: USP14 Inhibition Assay. It is filed as biochemical. The conditions noted are these: average value from a minimum of two experimental determinations, read-out: IC50 Category. As for the experimental part:
Example 17: USP14 Inhibition Assay
“I” in the Table below designates an IC50 of >5 μM, “II” in the Table below designates and IC50 between 0.5 and 5 μM, and “III” designates an IC50<0.5 μM. The IC50 values in the Table below represent the average value from a minimum of two experimental determinations.

Molecules are shown by their SMILES.

Sequence of USP14 (P54578 whole entry, looked up): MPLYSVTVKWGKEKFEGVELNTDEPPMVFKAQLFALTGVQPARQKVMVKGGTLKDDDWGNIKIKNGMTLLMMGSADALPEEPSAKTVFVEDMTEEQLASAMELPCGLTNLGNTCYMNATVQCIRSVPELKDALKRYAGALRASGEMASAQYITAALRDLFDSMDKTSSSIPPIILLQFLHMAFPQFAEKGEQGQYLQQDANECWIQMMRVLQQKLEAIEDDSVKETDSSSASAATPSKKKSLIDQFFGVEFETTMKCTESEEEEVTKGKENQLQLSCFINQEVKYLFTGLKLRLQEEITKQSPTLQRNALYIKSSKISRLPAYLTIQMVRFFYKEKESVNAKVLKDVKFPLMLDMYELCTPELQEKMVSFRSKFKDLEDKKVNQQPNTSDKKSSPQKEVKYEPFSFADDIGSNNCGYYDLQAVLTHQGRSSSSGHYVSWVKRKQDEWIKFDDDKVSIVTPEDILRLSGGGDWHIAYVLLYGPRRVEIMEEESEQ

Consider `[2H]C1([2H])N(CC(=O)c2c(C)n(-c3ccc(C#N)cc3)c3cc(Br)cnc23)C([2H])([2H])C([2H])([2H])C([2H])([2H])C1([2H])[2H]` [Compound 320], for which the IC50 (as a rule, the concentration at which inhibition is half-maximal) is less than 500 nM.
Take `Cc1c(C(=O)CN2CCC(O)CC2)c2ncc(/C=C/c3nnc(C(F)(F)F)o3)cc2n1-c1ccc(C#N)cc1` [Compound 321]: the IC50 is less than 500 nM.
`Cc1c(C(=O)CN2CCC(F)(F)C2)c2ncc(Br)cc2n1-c1ccc(C#N)cc1` [Compound 324]: the IC50 was more than 5000 nM.
With `Cc1c(C(=O)CN2CCC2)c2ncc(Br)cc2n1-c1ccc(C#N)cc1` [Compound 325] the figure was more than 5000 nM; with `COc1cnc2c(C(=O)CN3CCCCC3)c(C)n(-c3ccc(C#N)cc3)c2c1` [Compound 326, 4-(6-Methoxy-2-methyl-3-(2-(piperidin-1-yl)acetyl)-1H-pyrrolo[3,2-b]pyridin-1-yl)benzonitrile], less than 500 nM; with `Cc1c(C(=O)CN2CCS(=O)(=O)CC2)c2ncc(Br)cc2n1-c1ccc(C#N)cc1` [Compound 327], more than 5000 nM.
As for `Cc1c(C(=O)CN2CC[C@H](O)[C@@H](O)C2)c2ncc(Br)cc2n1-c1ccc(C#N)cc1` [Compound 328], the IC50 is more than 5000 nM.
With `Cc1c(C(=O)CN2CCOCC2)c2ncc(Br)cc2n1-c1ccc(C#N)cc1` [Compound 329] the figure was more than 5000 nM; with `Cc1c(C(=O)CN2CCN(C)CC2)c2ncc(Br)cc2n1-c1ccc(C#N)cc1` [Compound 330], more than 5000 nM; with `Cc1c(C(=O)CN2CCSCC2)c2ncc(Br)cc2n1-c1ccc(C#N)cc1` [Compound 331], less than 500 nM.
For the molecule `Cc1c(C(=O)CN2CC[C@H](O)[C@H](O)C2)c2ncc(Br)cc2n1-c1ccc(C#N)cc1` [Compound 332], the IC50 was less than 500 nM.
Consider `Cc1c(C(=O)CN2CCC(O)CC2)c2ncccc2n1-c1ccc(C#N)cc1` [Compound 335], for which the IC50 was less than 500 nM.
Take `CC(C)c1c(C(=O)CN2CCCCC2)c2ncccc2n1-c1ccc(C#N)cc1` [Compound 336]: the half-maximal inhibitory concentration (IC50) was more than 5000 nM.
For the molecule `Cc1c(C(=O)CN2CCC(O)CC2)c2ccccc2n1-c1ccc(C#N)cc1` [Compound 337], the IC50 was less than 500 nM.
With `Cc1c(C(=O)CN2C[C@H](C)C[C@H](C)C2)c2ncc(Br)cc2n1-c1ccc(C#N)cc1` [Compound 338] the figure was more than 5000 nM.
With `COc1cnc2c(C(=O)CN3CCC(O)CC3)c(C)n(-c3ccc(C#N)cc3)c2c1` [Compound 339] the figure was less than 500 nM.
Under `CCOc1cnc2c(C(=O)CN3CCC(O)CC3)c(C)n(-c3ccc(C#N)cc3)c2c1` [Compound 340] stands less than 500 nM; under `COCCOc1cnc2c(C(=O)CN3CCC(O)CC3)c(C)n(-c3ccc(C#N)cc3)c2c1` [Compound 341], less than 500 nM; under `Cc1c(C(=O)CN2CCC(O)CC2)c2ncc(CCNS(C)(=O)=O)cc2n1-c1ccc(Cl)cc1` [Compound 342, N-(2-(1-(4-Chlorophenyl)-3-(2-(4-hydroxypiperidin-1-yl)acetyl)-2-methyl-1H-pyrrolo[3,2-b]pyridin-6-yl)ethyl)methanesulfonamide], less than 500 nM.
Turning to `Cc1c(C(=O)CN2CC3(COC3)C2)c2ncc(Br)cc2n1-c1ccc(C#N)cc1` [Compound 343], the IC50 was more than 5000 nM.
In the case of `Cc1c(C(=O)CN2CCNC(=O)C2)c2ncc(Br)cc2n1-c1ccc(C#N)cc1` [Compound 344], the IC50 was more than 5000 nM.
As for `Cc1c(C(=O)CN2CCCCO2)c2ncc(Br)cc2n1-c1ccc(C#N)cc1` [Compound 345], the IC50 was more than 5000 nM.
Consider `Cc1c(C(=O)CN2CCCCC2)c2ncc(CCN3CCCC3)cc2n1-c1ccc(Cl)cc1` [Compound 346, 1-(1-(4-Chlorophenyl)-2-methyl-6-(2-(pyrrolidin-1-yl)ethyl)-1H-pyrrolo[3,2-b]pyridin-3-yl)-2-(piperidin-1-yl)ethan-1-one], for which the IC50 is less than 500 nM.
On to `CCCOc1cnc2c(C(=O)CN3CCC(O)CC3)c(C)n(-c3ccc(C#N)cc3)c2c1` [Compound 347], for which the IC50 was less than 500 nM.
Take `Cc1c(C(=O)CN2C[C@H](C)C[C@@H](C)C2)c2ncc(Br)cc2n1-c1ccc(C#N)cc1` [Compound 348]: the IC50 is more than 5000 nM.
Take `Cc1c(C(=O)CN2C[C@@H](C)C[C@H](C)C2)c2ncc(Br)cc2n1-c1ccc(C#N)cc1` [Compound 349]: the IC50 is less than 500 nM.
`CCOC(=O)C[C@@H](C)c1cnc2c(C(=O)CN3CCCCC3)c(C)n(-c3ccc(C#N)cc3)c2c1` [Compound 350, Ethyl (R)-3-(1-(4-Cyanophenyl)-2-methyl-3-(2-(piperidin-1-yl)acetyl)-1H-pyrrolo[3,2-b]pyridin-6-yl)butanoate]: the IC50 was less than 500 nM.
As for `CCOC(=O)C[C@H](C)c1cnc2c(C(=O)CN3CCCCC3)c(C)n(-c3ccc(C#N)cc3)c2c1` [Compound 351, Ethyl (S)-3-(1-(4-Cyanophenyl)-2-methyl-3-(2-(piperidin-1-yl)acetyl)-1H-pyrrolo[3,2-b]pyridin-6-yl)butanoate], the IC50 was less than 500 nM.
With `Cc1c(C(=O)CN2CCC(CN(C)C)CC2)c2ncc(Br)cc2n1-c1ccc(C#N)cc1` [Compound 352] the figure was less than 500 nM; with `Cc1c(C(=O)CN2CCC(O)CC2)c2ncc(Br)cc2n1-c1ccc(C#N)cc1` [Compound 353], less than 500 nM; with `Cc1c(C(=O)CN2CCC(CN)CC2)c2ncc(Br)cc2n1-c1ccc(C#N)cc1` [Compound 354], less than 500 nM.
With `Cc1c(C(=O)CN2CC[C@@H](O)[C@@H](O)C2)c2ncc(Br)cc2n1-c1ccc(C#N)cc1` [Compound 355] the figure was less than 500 nM; with `Cc1c(C(=O)CN2CC[C@H](O)[C@H](O)C2)c2ncc(Br)cc2n1-c1ccc(C#N)cc1` [Compound 356], less than 500 nM.
Regarding `Cc1c(C(=O)CN2CCC(O)CC2)c2ncc(CCS(N)(=O)=O)cc2n1-c1ccc(Cl)cc1` [Compound 357, 2-(1-(4-Chlorophenyl)-3-(2-(4-hydroxypiperidin-1-yl)acetyl)-2-methyl-1H-pyrrolo[3,2-b]pyridin-6-yl)ethane-1-sulfonamide], the IC50 is less than 500 nM.
Under `Cc1c(C(=O)CN2CC3(CCC3)C2)c2ncc(Br)cc2n1-c1ccc(C#N)cc1` [Compound 359] stands more than 5000 nM; under `Cc1c(C(=O)CN2CCCCC2)c2ncc(CN3CCCC3)cc2n1-c1ccc(C#N)cc1` [Compound 360, 4-(2-Methyl-3-(2-(piperidin-1-yl)acetyl)-6-(pyrrolidin-1-ylmethyl)-1H-pyrrolo[3,2-b]pyridin-1-yl)benzonitrile], less than 500 nM.
Take `C#CCCCNC(=O)CCc1cnc2c(C(=O)CN3CCC(O)CC3)c(C)n(-c3ccc(C#N)cc3)c2c1` [Compound 361]: the IC50 was less than 500 nM.
Under `Cc1c(C(=O)CN2CCC(O)CC2)c2ncc(CCC(=O)NCCCC#N)cc2n1-c1ccc(C#N)cc1` [Compound 362] stands less than 500 nM; under `COCCOc1cnc2c(C(=O)CN3CCC(OC)CC3)c(C)n(-c3ccc(Cl)cc3)c2c1` [Compound 363], less than 500 nM.
On to `COCCOc1cnc2c(C(=O)CN3CCCCC3)c(C)n(-c3ccc(Cl)cc3)c2c1` [Compound 364], for which the IC50 was less than 500 nM.
As for `CCOC(=O)CC1CCN(CC(=O)c2c(C)n(-c3ccc(C#N)cc3)c3cc(Br)cnc23)CC1` [Compound 365], the 50% inhibitory concentration (IC50) was 500 to 5000 nM.
For `CCOC(=O)CC1CCCN(CC(=O)c2c(C)n(-c3ccc(C#N)cc3)c3cc(Br)cnc23)C1` (stereo not shown) [Compound 366], the IC50 fell in the range of 500 to 5000 nM.
With `Cc1c(C(=O)CN2CCC(N)CC2)c2ncc(Br)cc2n1-c1ccc(C#N)cc1` [Compound 367], the IC50 was in the range of 500 to 5000 nM.
Under `CCOC(=O)CNCC1CCN(CC(=O)c2c(C)n(-c3ccc(C#N)cc3)c3cc(Br)cnc23)CC1` [Compound 368] stands 500 to 5000 nM; under `COc1cnc2c(C(=O)CN3CCC(CN)CC3)c(C)n(-c3ccc(C#N)cc3)c2c1` [Compound 369], less than 500 nM; under `COc1cnc2c(C(=O)CN3CCC(CN(C)C)CC3)c(C)n(-c3ccc(C#N)cc3)c2c1` [Compound 370], less than 500 nM.
Under `Cc1c(C(=O)CN2CCC(CC(=O)O)CC2)c2ncc(Br)cc2n1-c1ccc(Cl)cc1` [Compound 371] stands more than 5000 nM; under `N#Cc1ccc(-n2c(C(F)(F)F)c(C(=O)CN3CCCCC3)c3ncccc32)cc1` [Compound 372], more than 5000 nM; under `Cc1c(C(=O)CN2[C@H](C)CCC[C@H]2C)c2ncc(Br)cc2n1-c1ccc(C#N)cc1` [Compound 373], 500 to 5000 nM.
Take `Cc1c(C(=O)CN2[C@@H](C)CCC[C@@H]2C)c2ncc(Br)cc2n1-c1ccc(C#N)cc1` [Compound 374]: the IC50 lay in the range of 500 to 5000 nM.
On to `Cc1c(C(=O)CN2CCCCC2)c2ncc(CC(=O)NC3CC3)cc2n1-c1ccc(C#N)cc1` [Compound 381, 2-(1-(4-Cyanophenyl)-2-methyl-3-(2-(piperidin-1-yl)acetyl)-1H-pyrrolo[3,2-b]pyridin-6-yl)-N-cyclopropylacetamide], for which the IC50 is less than 500 nM.
With `CCN(C)C(=O)Cc1cnc2c(C(=O)CN3CCCCC3)c(C)n(-c3ccc(C#N)cc3)c2c1` [Compound 382, 2-(1-(4-Cyanophenyl)-2-methyl-3-(2-(piperidin-1-yl)acetyl)-1H-pyrrolo[3,2-b]pyridin-6-yl)-N-ethyl-N-methylacetamide] the figure was less than 500 nM; with `CCNC(=O)Cc1cnc2c(C(=O)CN3CCCCC3)c(C)n(-c3ccc(C#N)cc3)c2c1` [Compound 383, 2-(1-(4-Cyanophenyl)-2-methyl-3-(2-(piperidin-1-yl)acetyl)-1H-pyrrolo[3,2-b]pyridin-6-yl)-N-ethylacetamide], less than 500 nM.
For the molecule `CCOC(=O)Cc1cnc2c(C(=O)CN3CCCCC3)c(C)n(-c3ccc(C#N)cc3)c2c1` [Compound 384, Ethyl 2-(1-(4-Cyanophenyl)-2-methyl-3-(2-(piperidin-1-yl)acetyl)-1H-pyrrolo[3,2-b]pyridin-6-yl)acetate], the IC50 was less than 500 nM.
Under `Cc1c(C(=O)CN2CCCCC2)c2ncc(Cl)cc2n1-c1ccc(C#N)cc1` [Compound 385] stands less than 500 nM.

The record behind these values is patent US11242361B2 (Proteostasis Therapeutics, Inc., priority 2013, dated 2022).
